# Results published in article PMC7046148 (Scientific Reports, 2020).
# Key:
# Gibco hiPSCs = test: qRT-PCR characterization of LPM differentiation, Gibco hiPSCs in 2D; assay type: cell-based, human; settings: 20 µM thalidomide, 2 d in APEL2+GSKi; for effect on marker gene expression during LPM differentiation (words): 2D
# Description: The TaqMan hPSC Scorecard Assay (Thermo Fisher) was used to assess the pluripotency of cultured Gibco hiPSCs and the XCL-1 hiPSC clones as described. The assay outputs scores for self-renewal, ectoderm, endoderm, and mesoderm genes.
# Gibco hiPSCs were seeded in small clumps at ~10% confluence on Matrigel-coated dishes and were cultured for 1 d in mTeSR-1. On the following day after seeding, the medium was switched to APEL2 basal medium (Stem Cell Technologies) supplemented with 5 µM CHIR99021 (Stem Cell Technologies) (hereafter referred to as APEL2 + GSKi). hiPSCs were cultured for the described duration in APEL2 + GSKi and were characterized by qRT-PCR and immunofluorescence. Briefly, RNA was extracted using buffer RLT supplemented with 1% β-mercaptoethanol and purified from hiPSCs using RNeasy kit (Qiagen) with optional DNase step. Reverse transcription was carried out using the high capacity cDNA reverse transcription kit (ThermoFisher). cDNA was characterized using Qubit HS dsDNA kit (Invitrogen), and qRT-PCR was carried out using TaqMan primer/probes (Thermo Fisher) and fast advanced master mix (Thermo Fisher) per manufacturer’s instructions on either the Viia7 or QuantStudio 5 (Thermo Fisher). Assay results were normalized to ACTB housekeeping control and the undifferentiated control (day 0) via the 2^−ΔΔCT method. The capacity of Gibco hiPSCs and XCL-1 hiPSCs to undergo LPM differentiation was also assessed using qRT-PCR for markers of pluripotency (NANOG, POU5F1), primitive streak (T, SOX17), LPM (FOXF1, GATA4), and limb mesenchyme (PITX1, TBX5).
# Data represent the mean ± log2 fold change, normalized to the ACTB control and the DMSO control via the 2^−ΔΔCT method, relative to DMSO control from 4 independent experiments. Asterisks denote statistical significance via 2-tailed Student’s t-test relative to a nominal mean log2 fold change of ‘0’ (α = 0.05). PS = primitive streak; LPM = lateral plate mesoderm.
# Legend for Supplementary Tables 1-3
# Supplementary tables 1-3 contain qRT-PCR data obtained using the Taqman hPSC Scorecard Assay (Thermo Fisher).Lysates of Gibco and XCL-1 hiPSCs were purified to RNA using RNeasy procedure (Qiagen). Reverse transcription was performed using the cDNA high capacity reverse transcription kit(Invitrogen). dsDNA content was calculated using Qubit dsDNA HS kit(Invitrogen). cDNA was loaded into hPSC pluripotency panel pre-loaded 384 well plates, and plates were run on Viia7 using standard curve method. The hPSC scorecard analysis software (Thermo Fisher) was used to calculate the relative gene expression scores forself-renewal genes, ectoderm genes, endoderm genes, and mesoderm genes. Scores are provided from pooled lysates from replicate wells ofa single experiment. Cells were cultured as described herein. […]
# human SALL4 = molecular target: T1, human SALL4 (Homo sapiens, UniProt Q9UJQ4); test: Immunoblot of SALL4 degradation in Lenti-x 293 CRBN-/- cells expressing human CRBN variants; assay type: cell-based; settings: 20 µM thalidomide, 10 µM lenalidomide, 1 µM pomalidomide, 24 hours; relative to wild-type human CRBN
# T1 construct: expressed in transfected cells; host or cells: Lenti-x 293 CRBN CRISPR KO (CRBN-/-) cells stably expressing human SALL4, transiently transfected with FLAG-CRBN variants
# Description: SALL4 were transiently transfected with vectors expressing GFP or human CRBN variants and treated with
# CRBN-/- cells transfected with empty vector were used as a negative control. The cells were then lysed and
# characterized by immunoblotting analysis for SALL4, ZFP91, GFP, CRBN, and β-actin.
# CRBN CRISPR KO (CRBN -/-) cells were maintained in Dulbecco’s Modified Eagle’s medium (DMEM;
# Invitrogen) supplemented with 10% fetal bovine serum (FBS; Invitrogen). All cell lines were confirmed
# mycoplasma-negative using the MycoAlert Mycoplasma Detection Kit (Lonza).
# CRBN-/- cells stably expressing human SALL4 was transiently transfected with 4 µg of pcDNA3-GFP, pcDNA3-
# FLAG-CRBN WT (isoform 1),pcDNA3-FLAG-CRBN E377V (isoform 1) or pcDNA3-FLAG-CRBN V388I (isoform
# Cells were then harvested and lysed, and
# whole cell extract was subjected to immunoblotting analysis. Cells were washed with ice-cold 1X PBS and
# lysed in 50mM Tris-HCl [pH 7.6], 150 mM NaCl, 1% Triton X-100, and 1x Complete ULTRA protease inhibitor
# cocktail and PhosSTOP phosphatase inhibitor cocktail. Whole cell extracts were collected after
# centrifugation at top speed for 10 minutes, resolved by sodium dodecyl sulfate polyacrylamide gel
# electrophoresis, transferred onto a nitrocellulose membrane using the Turboblot system (Bio-Rad), and
# probed with the indicated primary antibodies. Bound antibodies were detected with IRDye®-680 or -800 […]
# XCL-1 hiPSC CRBN KO/KI = test: cells; assay type: cell-based; settings: Homo sapiens, 72 h; XCL-1 CRBN KO/KI; 3 d differentiation; read-out: IC50 (±SEM) in SOX17 differentiation assay
# Description: (§1) The assay was carried out as previously described with continuous dosing of chemical for 3 total days of differentiation. SOX17 staining and DAPI counter-staining were carried out as described, and assays were imaged via high content imaging. […]
# (§2) Supplementary Figure 7. Dose-response characterization of the influence […]
# (§3) of XCL-1 clones. High content imaging analysis of XCL-1 hiPSC clones that were differentiated for 3 days in the presence of compound and subsequently stained for SOX17 and counter-stained with DAPI. Untreated DMSO control is omitted. Data represent the mean +/- SEM %SOX17 cells
# (§4) (relative to control) from 4 independent experiments. Nonlinear regression […]
# (§5) variable slope plotting tool in GraphPad Prism. A-C: Dose-response […]
# (§6) in cereblon mock (hollow circles) or CRBN KO/KI (red filled circles) clones. D- […]
# XCL-1 hiPSC CRBN Mock = test: cells; assay type: cell-based; settings: Homo sapiens, 72 h; XCL-1 CRBN Mock; 3 d differentiation; read-out: IC50 (±SEM) in SOX17 differentiation assay
# Description: as §1, §2, §3, §4, §5, §6
# XCL-1 hiPSC SALL4^G416A = test: cells; assay type: cell-based; settings: Homo sapiens, 72 h; XCL-1 SALL4^G416A; 3 d differentiation; read-out: IC50 (±SEM) in SOX17 differentiation assay
# Description: as §1, §2, §3, §4, §5, §6
# XCL-1 hiPSC SALL4 Mock = test: cells; assay type: cell-based; settings: Homo sapiens, 72 h; XCL-1 SALL4 Mock; 3 d differentiation; read-out: IC50 (±SEM) in SOX17 differentiation assay
# Description: as §1, §2, §3, §4, §5, §6
# [1] = system: human pluripotent stem cells (hPSCs); settings: cited from earlier work
# T1 sequence (Q96SW2 whole entry partner): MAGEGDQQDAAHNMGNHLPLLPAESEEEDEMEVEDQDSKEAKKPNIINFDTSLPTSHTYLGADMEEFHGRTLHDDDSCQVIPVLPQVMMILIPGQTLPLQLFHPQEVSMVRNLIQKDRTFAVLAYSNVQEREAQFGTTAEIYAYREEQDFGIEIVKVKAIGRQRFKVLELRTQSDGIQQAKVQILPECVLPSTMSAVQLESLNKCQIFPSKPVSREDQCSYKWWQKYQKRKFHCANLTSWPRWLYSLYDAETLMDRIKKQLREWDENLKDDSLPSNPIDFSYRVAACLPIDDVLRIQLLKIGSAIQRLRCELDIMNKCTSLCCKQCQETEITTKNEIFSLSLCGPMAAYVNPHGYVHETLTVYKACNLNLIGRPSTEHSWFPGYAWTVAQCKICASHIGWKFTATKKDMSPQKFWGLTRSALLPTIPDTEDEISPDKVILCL
# T1 sequence (Q16531 whole entry partner): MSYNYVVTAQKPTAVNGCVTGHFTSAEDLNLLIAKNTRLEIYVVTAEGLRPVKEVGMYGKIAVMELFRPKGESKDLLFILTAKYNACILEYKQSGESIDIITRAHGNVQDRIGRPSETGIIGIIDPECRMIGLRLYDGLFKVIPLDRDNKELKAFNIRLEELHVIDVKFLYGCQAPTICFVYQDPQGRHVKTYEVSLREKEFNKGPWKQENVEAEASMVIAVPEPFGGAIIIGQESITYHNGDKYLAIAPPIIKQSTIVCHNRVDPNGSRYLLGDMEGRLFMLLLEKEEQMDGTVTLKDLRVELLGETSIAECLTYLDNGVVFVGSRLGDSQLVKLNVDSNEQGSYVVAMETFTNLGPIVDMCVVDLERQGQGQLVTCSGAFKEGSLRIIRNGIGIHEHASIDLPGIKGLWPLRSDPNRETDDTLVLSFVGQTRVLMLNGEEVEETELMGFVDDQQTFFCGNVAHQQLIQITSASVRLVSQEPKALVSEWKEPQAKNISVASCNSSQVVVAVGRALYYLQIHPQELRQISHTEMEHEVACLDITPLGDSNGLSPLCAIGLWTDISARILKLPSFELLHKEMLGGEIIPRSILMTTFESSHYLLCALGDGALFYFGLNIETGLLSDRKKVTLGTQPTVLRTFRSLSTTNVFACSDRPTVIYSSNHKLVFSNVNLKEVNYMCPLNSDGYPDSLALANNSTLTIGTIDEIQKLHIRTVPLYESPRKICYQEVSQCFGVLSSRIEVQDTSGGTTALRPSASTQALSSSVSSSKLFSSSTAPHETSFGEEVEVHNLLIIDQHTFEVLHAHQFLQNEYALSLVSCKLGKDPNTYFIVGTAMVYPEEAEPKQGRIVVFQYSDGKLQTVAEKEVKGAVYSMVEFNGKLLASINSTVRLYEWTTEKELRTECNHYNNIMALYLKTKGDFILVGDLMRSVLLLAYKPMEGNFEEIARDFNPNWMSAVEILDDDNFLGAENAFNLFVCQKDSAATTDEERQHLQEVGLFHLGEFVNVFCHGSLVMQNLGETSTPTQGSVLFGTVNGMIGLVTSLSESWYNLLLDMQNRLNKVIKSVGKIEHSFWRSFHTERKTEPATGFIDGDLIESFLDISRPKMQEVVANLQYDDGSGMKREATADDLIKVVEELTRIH
# T1 sequence (Q9UJQ4 whole entry): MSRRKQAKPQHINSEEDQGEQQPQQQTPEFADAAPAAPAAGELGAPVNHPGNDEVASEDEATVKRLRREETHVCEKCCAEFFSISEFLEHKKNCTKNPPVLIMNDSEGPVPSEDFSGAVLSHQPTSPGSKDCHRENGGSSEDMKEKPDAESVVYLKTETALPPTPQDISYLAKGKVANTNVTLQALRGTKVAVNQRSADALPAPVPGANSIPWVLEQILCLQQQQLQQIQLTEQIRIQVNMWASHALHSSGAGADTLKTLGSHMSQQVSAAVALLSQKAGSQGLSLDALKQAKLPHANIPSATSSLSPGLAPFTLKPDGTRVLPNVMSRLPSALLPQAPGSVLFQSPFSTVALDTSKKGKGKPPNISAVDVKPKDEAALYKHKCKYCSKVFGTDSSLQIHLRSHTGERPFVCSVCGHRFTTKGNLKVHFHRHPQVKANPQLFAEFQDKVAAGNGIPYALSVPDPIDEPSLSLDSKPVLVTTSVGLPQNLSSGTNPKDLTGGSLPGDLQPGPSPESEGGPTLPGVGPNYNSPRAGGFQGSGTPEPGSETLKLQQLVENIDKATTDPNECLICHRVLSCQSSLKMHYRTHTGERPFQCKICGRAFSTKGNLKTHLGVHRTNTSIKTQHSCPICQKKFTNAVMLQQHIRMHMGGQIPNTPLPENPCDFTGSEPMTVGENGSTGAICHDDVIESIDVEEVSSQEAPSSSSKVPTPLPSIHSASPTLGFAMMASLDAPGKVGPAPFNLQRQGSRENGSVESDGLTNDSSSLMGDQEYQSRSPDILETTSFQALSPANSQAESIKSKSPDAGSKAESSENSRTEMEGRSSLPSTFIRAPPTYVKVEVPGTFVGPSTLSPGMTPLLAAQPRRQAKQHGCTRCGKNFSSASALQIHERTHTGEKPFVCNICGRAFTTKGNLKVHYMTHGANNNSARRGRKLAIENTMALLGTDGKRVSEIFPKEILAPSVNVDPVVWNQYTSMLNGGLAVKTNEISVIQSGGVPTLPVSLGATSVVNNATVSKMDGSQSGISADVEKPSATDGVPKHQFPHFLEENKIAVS
compound,measurement,setting,value
"O=C1CCC(N2C(=O)c3ccccc3C2=O)C(=O)N1 (stereo not shown) [Thalidomide, thalidomide]",effect on marker gene expression during LPM differentiation (words),Gibco hiPSCs,did not affect expression of the other measured markers
same,effect on marker gene expression during LPM differentiation (words),Gibco hiPSCs; listed as thalidomide,significantly reduced the expression of both FOXF1 and SOX17
same,reduction of FOXF1 expression,Gibco hiPSCs; hPSC Scorecard panel,~ 60%
same,reduction of SOX17 expression,Gibco hiPSCs; hPSC Scorecard panel,> 95%
same,SALL4 degradation in human cells expressing CRBN with the V388I mutation,human SALL4,failed to induce SALL4 degradation
same,IC50,XCL-1 hiPSC CRBN KO/KI,> 50 µM
same,IC50,XCL-1 hiPSC CRBN Mock,1.9 ± 2.3 µM
same,IC50,XCL-1 hiPSC SALL4^G416A,> 50 µM
same,IC50,XCL-1 hiPSC SALL4 Mock,1.8 ± 2.6 µM
same,concentrations with cytotoxicity or functional effects on hPSCs and hPSC-derived mesoderm,[1],above 100 µM
